Measurements from PMC11928584, “H105A peptide eye drops promote photoreceptor survival in murine and human models of retinal degeneration” (Communications Medicine, 2025).
Where a SMILES comes first, the peptide text is derived from it.

Key:
Assay type in all cases: in vivo, mouse
[1] = test system: photoreceptors of rd10 mice; assay: PSVue-550 fluorescence fundoscopy of photoreceptor cell death (PS externalization); conditions: daily eye drops 5 µl of 1 mg/ml from P15, PSVue-550 fundoscopy P21
Excerpt: (§1) Fluorescence fundoscopy with a cell death probe was chosen as a simple method for monitoring photoreceptor cell death in alive animals. A fluorescent probe, bis (zinc^2+-dipicolylamine)-550, (PSVue®-550) (Molecular Targeting Technologies Inc, cat. P-1005) was reconstituted in Hanks’ Balanced Salt Solution (HBSS, Quality Biological, cat. 114-062-101) according to the manufacturer’s instructions[28],[36]. This probe is suitable for in vivo use to specifically and transiently label dying photoreceptors, such as in living rats with retinal degeneration the Royal College of Surgeons rat model, in a non-invasive and non-toxic method without the need of intraocular injection. Briefly, a stock of 1 mM solution of PSVue®-550 was stored in the dark at 4 °C and used within 14 days directly as eye drop. After 3-4 h of light onset each mouse received eye drops of 5–10 μl of 1 mM PSVue®-550 in the left eye and HBSS in the right eye as control. The eye drop volume was chosen such that the eye cavity was filled without spillage outside the eye, and it was modified depending on eye size. […] To obtain in vivo retinal images of fundi, at 24 h after the probe was administered, the mice were anesthetized, and pupils were dilated with 1% tropicamide for 5 min and kept hydrated with GenTeal. Fluorescence was imaged using a retinal imaging microscope (Micron III, Phoenix Research Labs) using an FF02- 475/50 nm excitation filter (Semrock, Inc.). We observed some variability in optic nerve (ON) fluorescence that could not be readily explained, so the optic nerve was excluded from analyses in all samples.
(§2) To determine the natural history of photoreceptor death of rd10 and rd10/Serpinf1^-/- mice, we assessed photoreceptor cell death in live mice using the fluorescent probe termed PSVue® 550 to monitor PS externalization by fluorescence fundoscopy (Supplementary Fig. 2). Given the reports about the retinas of rd10 mice starting to show histological changes at P16, and with a peak in the number of TUNEL+ nuclei in the ONL at P17-18[13], we monitored PS externalization in photoreceptors of these mice undergoing degeneration before death onset. Eye drops of 1 mM PSVue® 550 solution in HBSS were administered to left eyes and HBSS (vehicle) to their contralateral right eyes of each mouse at ages P16, P20, P22 or P24. PS externalization was determined by fluorescence fundoscopy 24 h post-administration. PSVue labeling of phosphatidylserine (PS) externalization associated with photoreceptor cell death in the rd10 retina (Supplementary Figs. 2, 3).
(§3) Fig. 2 Effect of PEDF peptide eye drops on protection against photoreceptor cell death in rd10 and rd10/Serpinf1^-/- mice. a Illustration of the experimental timeline of peptide application. Eye drops containing 5 µl of 17-mer, H105A, or R99A peptides in HBSS were administered daily to eyes of rd10 and rd10/Serpinf1^-/- mice from P15 to P20. Vehicle (HBSS) was applied in contralateral eyes. At P20, PSVue® was applied via eye drops, and fluorescence fundoscopy was conducted at P21 to assess photoreceptor cell death. RE and LE refer to the right and left eyes, respectively. b Fluorescence fundoscopy micrographs. Representative fluorescence fundoscopy images of retinas from mice treated as in Panel a with eyedrops of 1 mg/ml of each peptide. Quantification of fluorescence intensity was performed using ImageJ, with average intensity values corrected for background fluorescence from eyes that had not received PSVue or peptides. Each line represents data from one animal comparing treated and contralateral eyes, with five eyes (n = 5) per condition. Statistical significance was determined by paired t-test (****p ≤ 0.0001, and ns > 0.05). Scale bar = 0.5 mm. c Dose response of peptide eye drops. Representative fluorescence fundoscopy micrographs showing retinas treated with varying concentrations of 17-mer and H105A peptides (0.0 mg/ml to 1.0 mg/ml) in rd10 and rd10/Serpinf1^-/- mice. […]

[2] = test system: photoreceptors of rd10/Serpinf1-/- mice; assay: as above; conditions: daily eye drops 5 µl of 1 mg/ml from P15, PSVue-550 fundoscopy P21
Excerpt: as §1, §2, §3

[3] = test system: retinal function of rd10 mice; assay: Electroretinogram (scotopic a- and b-wave), rd10 mice; conditions: daily eye drops of labeled peptide P15-P20, ERG P21, n=3
Procedure: Electroretinogram (ERG) for rd10 and rd10/Serpinf1^-/- mice were dark-adapted overnight and recorded in both eyes of each animal using an Espion E2 system with ColorDome (Diagnosys LLC) with a heated surface. Briefly, pupils were dilated with 1% tropicamide (Akorn, NDC: 17478-101-12) for 10 min and mice were anesthetized with intraperitoneal injection of Zetamine™ (Ketamine hydrochloride injection, USP; VetOne, NDC 13985-584-10) at 92.5 mg/kg, and AnaSed® (xylazine injection, Akorn Pharmaceuticals, NDC 59399-110-20) at 5.5 mg/kg. Mice were placed on the heated surface and electrodes were placed in the mouth and a subdermal platinum needle electrode was placed in the back of the mouse to serve as ground. Responses were elicited with increasing light impulses with intensity from 0.0001 to 10 cd-seconds per meter squared (cd.s/m^2). Amplitudes for a-wave were measured from stimulus to the trough of the a-wave and b-wave amplitudes were measured from a-wave to b-wave trough or peak. The values from the a and b waves for both eyes were exported to Microsoft Excel to obtained amplitude values for each mouse.
Fig. 5 Effect of daily eyedrops of PEDF peptides on ERG a-wave and b-wave retinal function. a Illustration of the experimental timeline of peptide application. RE and LE refer to the right and left eyes, respectively. Representative ERG waveforms for rd10 (b) and rd10/Serpinf1^-/- (c) mice at P21 in response to a light flash (1 cd.s/m²). Amplitude (y-axis) is plotted against time in milliseconds (ms, x-axis). Treatments are indicated to the right of each plot and are color coded, with control wild type C57BL/6 J mice without peptide treatment shown in blue. A-wave and b-wave are indicated by arrows. Photoreceptor a-wave amplitudes. Averages of photoreceptor a-wave amplitudes for rd10 (d) and rd10/Serpinf1^-/- (e) mice as a function of light intensity (cd/s.m², x-axis). Responses of animals treated with 17-mer are shown in green, H105A in black, and vehicle (HBSS) in red. Wildtype responses are shown in blue. Bipolar cell b-wave amplitudes. Averages of bipolar cell b-wave amplitudes for rd10 (f) and rd10/Serpinf1^-/- (g) mice as a function of light intensity (cd/s.m², x-axis), with treatments as indicated in panels. The number of mice evaluated for the data shown in Panels d-g was five (n = 5) for each rd10, rd10/Serpinf1^-/- and wild type. Each data point represents the average ± SD of each genotype, analyzed by ANOVA with Dunnett’s multiple comparisons. Statistical significance between H105A and vehicle is indicated by ##p ≤ 0.01, ###p ≤ 0.001, ####p ≤ 0.0001, and between H105A and 17-mer by **p ≤ 0.01, ***p ≤ 0.001, ****p ≤ 0.0001.

| Compound | PS externalization / photoreceptor cell death vs vehicle [1] | PS externalization / photoreceptor cell death vs vehicle [2] | ERG a-wave and b-wave retinal function [3] |
| --- | --- | --- | --- |
| CC[C@H](C)[C@H](NC(=O)[C@H](CC(=O)O)NC(=O)[C@@H]1CCCN1C(=O)[C@H](CO)NC(=O)[C@H](CO)NC(=O)[C@@H](NC(=O)[C@H](CC(C)C)NC(=O)[C@H](CC(=O)O)NC(=O)[C@H](Cc1ccc(O)cc1)NC(=O)[C@H](Cc1ccc(O)cc1)NC(=O)[C@H](CC(C)C)NC(=O)[C@H](C)NC(=O)[C@H](CCCNC(=N)N)NC(=O)[C@H](C)NC(=O)[C@@H](NC(=O)[C@@H](NC(=O)[C@H](CO)NC(=O)[C@H](CCC(=O)O)NC(=O)[C@@H](NC(=O)[C@H](CCCNC(=N)N)NC(=O)[C@H](CCC(N)=O)NC(=O)[C@H](CCC(=O)O)NC(=O)[C@H](C)NC(=O)CNC(=O)[C@H](CC(C)C)NC(=O)[C@@H](N)CO)[C@@H](C)O)[C@@H](C)CC)[C@@H](C)CC)[C@@H](C)CC)C(=O)N[C@@H](Cc1c[nH]cn1)C(=O)NCC(=O)N[C@H](C(=O)O)[C@@H](C)O [29-mer[H105A]] (H-SLGAEQRTESIIARALYYDLISSPDIHGT-OH) | no reduction in photoreceptor cell death | no reduction in photoreceptor cell death |  |
| CC[C@H](C)[C@H](NC(=O)[C@H](CC(=O)O)NC(=O)[C@@H]1CCCN1C(=O)[C@H](CO)NC(=O)[C@H](CO)NC(=O)[C@@H](NC(=O)[C@H](CC(C)C)NC(=O)[C@H](CC(=O)O)NC(=O)[C@H](Cc1ccc(O)cc1)NC(=O)[C@H](Cc1ccc(O)cc1)NC(=O)[C@H](CC(C)C)NC(=O)[C@H](C)NC(=O)[C@H](CCCNC(=N)N)NC(=O)[C@H](Cc1c[nH]cn1)NC(=O)[C@@H](NC(=O)[C@@H](NC(=O)[C@H](CO)NC(=O)[C@H](CCC(=O)O)NC(=O)[C@@H](NC(=O)[C@H](CCCNC(=N)N)NC(=O)[C@H](CCC(N)=O)NC(=O)[C@H](CCC(=O)O)NC(=O)[C@H](C)NC(=O)CNC(=O)[C@H](CC(C)C)NC(=O)[C@@H](N)CO)[C@@H](C)O)[C@@H](C)CC)[C@@H](C)CC)[C@@H](C)CC)C(=O)N[C@@H](Cc1c[nH]cn1)C(=O)NCC(=O)N[C@H](C(=O)O)[C@@H](C)O [29-mer] (H-SLGAEQRTESIIHRALYYDLISSPDIHGT-OH) | no reduction in photoreceptor cell death | no reduction in photoreceptor cell death |  |
| AlexaFl-QATESIIHRALYYDLIS-COOH [AlexaFl-488-R99A, R99A peptide conjugated to Alexa Fluor 488 dye] |  |  | showed no improvement |
| AlexaFl-QRTESIIARALYYDLIS-COOH [AlexaFl-488-H105A, H105A peptide conjugated to Alexa Fluor 488 dye] |  |  | improved retinal function |
| AlexaFl-QRTESIIHRALYYDLIS-COOH [AlexaFl-488-17-mer, 17-mer peptide conjugated to Alexa Fluor 488 dye] |  |  | improved retinal function |
